Results from patent US11192891B2, “Diazaspiro ROCK inhibitors” (BRISTOL-MYERS SQUIBB COMPANY, priority 2017, dated 2021).
pEC50, pIC50: −log10 of the molar value.

target: ROCK2 (Homo sapiens, UniProt O75116); experiment: ROCK kinase inhibition assay, FITC peptide substrate, LABCHIP 3000 readout; assay type: biochemical; conditions: 5 μM ATP, 1.5 μM peptide substrate
Summary of the method: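 Rho kinase variants started the reaction with compound present (DMSO <2%); after incubation, EDTA stop, and phosphorylated and non-phosphorylated peptide separated by microfluidic electrophoresis. Dose-response format, inhibition calculated at each concentration.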

Sequence of ROCK2 (O75116 whole entry, species assumed): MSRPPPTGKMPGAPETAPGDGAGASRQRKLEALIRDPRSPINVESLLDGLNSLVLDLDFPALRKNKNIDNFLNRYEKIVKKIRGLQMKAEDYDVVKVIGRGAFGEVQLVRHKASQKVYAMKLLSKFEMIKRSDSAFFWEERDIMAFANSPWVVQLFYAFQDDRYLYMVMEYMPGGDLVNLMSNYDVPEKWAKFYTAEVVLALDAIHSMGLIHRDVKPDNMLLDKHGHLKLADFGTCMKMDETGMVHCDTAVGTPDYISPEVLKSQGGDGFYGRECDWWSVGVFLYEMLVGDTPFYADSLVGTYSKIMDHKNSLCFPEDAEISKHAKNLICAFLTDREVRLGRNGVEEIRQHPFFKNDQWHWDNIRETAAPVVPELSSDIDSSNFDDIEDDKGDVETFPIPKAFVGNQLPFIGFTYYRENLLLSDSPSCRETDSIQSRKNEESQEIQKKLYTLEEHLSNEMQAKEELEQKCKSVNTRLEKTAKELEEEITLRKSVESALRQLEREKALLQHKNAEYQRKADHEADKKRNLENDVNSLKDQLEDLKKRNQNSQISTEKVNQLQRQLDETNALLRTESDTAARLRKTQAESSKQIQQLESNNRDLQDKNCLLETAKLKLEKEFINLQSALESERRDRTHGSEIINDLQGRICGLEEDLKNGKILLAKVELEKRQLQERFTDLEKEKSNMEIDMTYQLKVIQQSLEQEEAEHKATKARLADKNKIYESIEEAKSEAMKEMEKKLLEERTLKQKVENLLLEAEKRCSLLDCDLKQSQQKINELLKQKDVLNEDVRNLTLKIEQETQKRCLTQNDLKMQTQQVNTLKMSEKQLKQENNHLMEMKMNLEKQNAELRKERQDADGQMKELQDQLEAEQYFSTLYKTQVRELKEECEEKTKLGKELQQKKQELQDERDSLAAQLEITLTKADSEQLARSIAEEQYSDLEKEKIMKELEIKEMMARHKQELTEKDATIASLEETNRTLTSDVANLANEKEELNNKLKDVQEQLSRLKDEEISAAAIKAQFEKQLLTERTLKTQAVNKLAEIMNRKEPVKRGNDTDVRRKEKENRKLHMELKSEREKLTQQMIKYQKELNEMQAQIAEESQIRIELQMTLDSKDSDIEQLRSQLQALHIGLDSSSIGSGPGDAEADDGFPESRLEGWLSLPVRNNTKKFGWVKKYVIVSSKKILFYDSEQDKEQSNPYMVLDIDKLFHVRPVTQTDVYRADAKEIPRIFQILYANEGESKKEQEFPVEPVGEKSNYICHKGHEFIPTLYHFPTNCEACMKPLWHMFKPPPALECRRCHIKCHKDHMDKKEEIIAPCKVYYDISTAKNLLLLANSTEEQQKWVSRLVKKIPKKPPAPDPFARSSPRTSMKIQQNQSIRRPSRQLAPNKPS

Row | pIC50 | pEC50 | Structure (SMILES)
1 | 5.97 |  | COc1cc(N2CCC3(CCN(C(=O)c4cnn5cccnc45)CC3)C2=O)ccc1-c1cn[nH]c1 [Example 198, 2-[3-methoxy-4-(1H-pyrazol-4-yl)phenyl]-8-{pyrazolo[1,5-a]pyrimidine-3-carbonyl}-2,8-diazaspiro[4.5]decan-1-one]
2 | 7.21 |  | COc1cc(N2CCC3(CCN(C(=O)c4cccc5[nH]cnc45)CC3)C2=O)ccc1-c1cn[nH]c1 [Example 197, 8-(1H-1,3-benzodiazole-4-carbonyl)-2-[3-methoxy-4-(1H-pyrazol-4-yl)phenyl]-2,8-diazaspiro[4.5]decan-1-one]
3 | 7.20 |  | COc1cc(N2CCC3(CCN(C(=O)c4ccc5nc(C(F)(F)F)cnc5c4)CC3)C2=O)ccc1-c1cn[nH]c1 [Example 138, 2-[3-methoxy-4-(1H-pyrazol-4-yl)phenyl]-8-[2-(trifluoromethyl)quinoxaline-6-carbonyl]-2,8-diazaspiro[4.5]decan-1-one]
4 | 9.15 |  | COc1cc(N2CCC3(CCN(C(=O)c4ccc(N5CCN(C(C)CO)CC5)cc4)CC3)C2=O)ccc1-c1cn[nH]c1 (centres unmarked) [Example 242, 8-{4-[4-(1-hydroxypropan-2-yl)piperazin-1-yl]benzoyl}-2-[3-methoxy-4-(1H-pyrazol-4-yl)phenyl]-2,8-diazaspiro[4.5]decan-1-one]
5 | 6.73 |  | COc1ccc2c(OC)ccc(C(=O)N3CCC4(CC3)CCN(c3ccc(-c5cn[nH]c5)c(OC)c3)C4=O)c2c1 [Example 199, 8-(4,7-dimethoxynaphthalene-1-carbonyl)-2-[3-methoxy-4-(1H-pyrazol-4-yl)phenyl]-2,8-diazaspiro[4.5]decan-1-one]
6 | 9.15 |  | COc1cc(N2CCC3(CCN(C(=O)c4ccc(N5CCN(CC6CCOC6)CC5)cc4)CC3)C2=O)ccc1-c1cn[nH]c1 (centres unmarked) [Example 246, 2-[3-methoxy-4-(1H-pyrazol-4-yl)phenyl]-8-(4-{4-[(oxolan-3-yl)methyl]piperazin-1-yl}benzoyl)-2,8-diazaspiro[4.5]decan-1-one]
7 | 8.52 |  | COc1cc(N2CCC3(CCN(C(=O)c4ccc(N5CCOC5=O)cc4)CC3)C2=O)ccc1-c1cn[nH]c1 [Example 141, 2-[3-methoxy-4-(1H-pyrazol-4-yl)phenyl]-8-[4-(2-oxo-1,3-oxazolidin-3-yl)benzoyl]-2,8-diazaspiro[4.5]decan-1-one]
8 | 5.64 |  | COc1cc(N2CCC3(CCN(S(=O)(=O)c4ccc5c(c4)C(=O)NC5=O)CC3)C2=O)ccc1-c1cn[nH]c1 [Example 210, 5-({2-[3-methoxy-4-(1H-pyrazol-4-yl)phenyl]-1-oxo-2,8-diazaspiro[4.5]decan-8-yl}sulfonyl)-2,3-dihydro-1H-isoindole-1,3-dione]
9 | 8.72 |  | COc1cc(N2CCC3(CCN(C(=O)c4ccc(N5CCN(Cc6cnc7ccccc7n6)CC5)cc4)CC3)C2=O)ccc1-c1cn[nH]c1 [Example 219, 2-[3-methoxy-4-(1H-pyrazol-4-yl)phenyl]-8-(4-{4-[(quinoxalin-2-yl)methyl]piperazin-1-yl}benzoyl)-2,8-diazaspiro[4.5]decan-1-one]
10 | 8.39 |  | COc1cc(N2CCC3(CCN(C(=O)c4ccc(N5CCN(Cc6ccc(C(F)(F)F)cc6)CC5)cc4)CC3)C2=O)ccc1-c1cn[nH]c1 [Example 234, 2-[3-methoxy-4-(1H-pyrazol-4-yl)phenyl]-8-[4-(4-{[4-(trifluoromethyl)phenyl]methyl}piperazin-1-yl)benzoyl]-2,8-diazaspiro[4.5]decan-1-one]
11 | 5.91 |  | COc1cc(N2CCC3(CCN(C(=O)C4CCN(c5ncccn5)CC4)CC3)C2=O)ccc1-c1cn[nH]c1 [Example 140, 2-[3-methoxy-4-(1H-pyrazol-4-yl)phenyl]-8-[1-(pyrimidin-2-yl)piperidine-4-carbonyl]-2,8-diazaspiro[4.5]decan-1-one]
12 | 8.96 |  | COc1cc(N2CCC3(CCN(C(=O)c4ccc(N5CCN(Cc6ccccc6Cl)CC5)cc4)CC3)C2=O)ccc1-c1cn[nH]c1 [Example 223, 8-(4-{4-[(2-chlorophenyl)methyl]piperazin-1-yl}benzoyl)-2-[3-methoxy-4-(1H-pyrazol-4-yl)phenyl]-2,8-diazaspiro[4.5]decan-1-one]
13 | 7.42 |  | COc1cc(N2CCC3(CCN(C(=O)c4ccc(N)cc4Cl)CC3)C2=O)ccc1-c1cn[nH]c1 [Example 189, 8-(4-amino-2-chlorobenzol)-2-[3-methoxy-4-(1H-pyrazol-4-yl)phenyl]-2,8-diazaspiro[4.5]decan-1-one]

More lines, now with the values behind:

Row | Structure (SMILES) | pIC50 | pEC50
14 | CN1CCN(c2ccc(C(=O)N3CCC4(CC3)CCN(c3cccc(-c5ccc6cn[nH]c6c5)c3)C4=O)cc2)CC1 [Example 49, 2-[3-(1H-indazol-6-yl)phenyl]-8-[4-(4-methylpiperazin-1-yl)benzoyl]-2,8-diazaspiro[4.5]decan-1-one] | 8.17 | 
15 | COc1c(F)cccc1C(=O)N1CCC2(CC1)CCN(c1ccc(-c3cn[nH]c3)cc1)C2=O [Example 8, 8-(3-Fluoro-2-methoxybenzoyl)-2-[4-(1H-pyrazol-4-yl)phenyl]-2,8-diazaspiro[4.5]decan-1-one] | 6.95 | 
16 | COc1cccc(C(=O)N2CCC3(CC2)CN(c2ccc(-c4cn[nH]c4)cc2)C3=O)c1 [Example 41, 7-(3-methoxybenzoyl)-2-[4-(1H-pyrazol-4-yl)phenyl]-2,7-diazaspiro[3.5]nonan-1-one] | 6.55 | 
17 | COc1cc(N2CCC3(CCN(C(=O)c4cc(C)on4)CC3)C2=O)ccc1-c1cn[nH]c1 [Example 104, 2-[3-methoxy-4-(1H-pyrazol-4-yl)phenyl]-8-(5-methyl-1,2-oxazole-3-carbonyl)-2,8-diazaspiro[4.5]decan-1-one] | 7.14 | 
18 | COc1cc(N2CCC3(CCN(C(=O)c4ccc(Cl)cc4)CC3)C2=O)ccc1-c1cn[nH]c1 [Example 18, 8-(4-Chlorobenzoyl)-2-[3-methoxy-4-(1H-pyrazol-4-yl)phenyl]-2,8-diazaspiro[4.5]decan-1-one] | 7.21 | 
19 | COc1cc(N2CCC3(CCN(C(=O)c4ccc(N(C)C)cc4)CC3)C2=O)ccc1-c1cn[nH]c1 [Example 21, 8-[4-(dimethylamino)benzoyl]-2-[3-methoxy-4-(1H-pyrazol-4-yl)phenyl]-2,8-diazaspiro[4.5]decan-1-one] | 7.80 | 
20 | COc1cc(N2CCC3(CCN(C(=O)c4cnc5n(c4=O)CCS5)CC3)C2=O)ccc1-c1cn[nH]c1 [Example 81, 2-[3-methoxy-4-(1H-pyrazol-4-yl)phenyl]-8-{5-oxo-2H,3H,5H-[1,3]thiazolo[3,2-a]pyrimidine-6-carbonyl}-2,8-diazaspiro[4.5]decan-1-one] | 7.24 | 
21 | COc1cc(N2CCC3(CCN(C(=O)c4ccc(N5CCCC5)cn4)CC3)C2=O)ccc1-c1cn[nH]c1 [Example 54, 2-[3-methoxy-4-(1H-pyrazol-4-yl)phenyl]-8-[5-(pyrrolidin-1-yl)pyridine-2-carbonyl]-2,8-diazaspiro[4.5]decan-1-one] | 8.68 | 
22 | COc1cc(N2CCC3(CCN(C(=O)c4ccc(C(C)C)cc4)CC3)C2=O)ccc1-c1cn[nH]c1 [Example 92, 2-[3-methoxy-4-(1H-pyrazol-4-yl)phenyl]-8-[4-(propan-2-yl)benzoyl]-2,8-diazaspiro[4.5]decan-1-one] | 7.92 | 
23 | COc1ccc(-c2cc(C(=O)N3CCC4(CC3)CCN(c3ccc(-c5cn[nH]c5)c(OC)c3)C4=O)on2)cc1 [Example 113, 2-[3-methoxy-4-(1H-pyrazol-4-yl)phenyl]-8-[3-(4-methoxyphenyl)-1,2-oxazole-5-carbonyl]-2,8-diazaspiro[4.5]decan-1-one] | 7.77 | 
24 | COc1cc(N2CCC3(CCN(C(=O)c4cc(=O)n5nnnc5[nH]4)CC3)C2=O)ccc1-c1cn[nH]c1 [Example 129, 2-[3-methoxy-4-(1H-pyrazol-4-yl)phenyl]-8-{7-oxo-4H,7H-[1,2,3,4]tetrazolo[1,5-a]pyrimidine-5-carbonyl}-2,8-diazaspiro[4.5]decan-1-one] | 6.53 | 
25 | COc1ccc(C(=O)N2CCC3(CC2)CCN(c2ccc(-c4cn[nH]c4)cc2)C3=O)cc1F [Example 11, 8-(3-fluoro-4-methoxybenzoyl)-2-[4-(1H-pyrazol-4-yl)phenyl]-2,8-diazaspiro[4.5]decan-1-one] |  | 7.80
26 | COc1cc(N2CCC3(CCN(C(=O)c4cc(C(C)C)n[nH]4)CC3)C2=O)ccc1-c1cn[nH]c1 [Example 110, 2-[3-methoxy-4-(1H-pyrazol-4-yl)phenyl]-8-[3-(propan-2-yl)-1H-pyrazole-5-carbonyl]-2,8-diazaspiro[4.5]decan-1-one] | 7.47 | 
27 | COc1cc(N2CCC3(CCN(C(=O)c4ccc(-c5ccccc5)cc4)CC3)C2=O)ccc1-c1cn[nH]c1 [Example 61, 8-{[1,1′-biphenyl]-4-carbonyl}-2-[3-methoxy-4-(1H-pyrazol-4-yl)phenyl]-2,8-diazaspiro[4.5]decan-1-one] | 7.74 | 
28 | COc1cc(N2CCC3(CCN(C(=O)c4ccc(C)nc4)CC3)C2=O)ccc1-c1cn[nH]c1 [Example 72, 2-[3-methoxy-4-(1H-pyrazol-4-yl)phenyl]-8-(6-methylpyridine-3-carbonyl)-2,8-diazaspiro[4.5]decan-1-one] | 6.66 | 
29 | COc1cc(N2CCC3(CCN(C(=O)c4ccc(N5CCNCC5)cc4)CC3)C2=O)ccc1-c1cn[nH]c1 [Example 130, 2-[3-methoxy-4-(1H-pyrazol-4-yl)phenyl]-8-[4-(piperazin-1-yl)benzoyl]-2,8-diazaspiro[4.5]decan-1-one] | 9.40 | 
30 | COc1cc(F)c(C(=O)N2CCC3(CC2)CCN(c2ccc(-c4cn[nH]c4)c(OC)c2)C3=O)c(F)c1 [Example 28, 8-(2,6-difluoro-4-methoxybenzoyl)-2-[3-methoxy-4-(1H-pyrazol-4-yl)phenyl]-2,8-diazaspiro[4.5]decan-1-one] | 8.30 | 
31 | COc1cc(N2CCC3(CCN(C(=O)c4c(C)cc(C(N)=O)cc4C)CC3)C2=O)ccc1-c1cn[nH]c1 [Example 30, 4-{2-[3-methoxy-4-(1H-pyrazol-4-yl)phenyl]-1-oxo-2,8-diazaspiro[4.5]decane-8-carbonyl}-3,5-dimethylbenzamide] | 6.89 | 
32 | COc1cc(N2CCC3(CCN(C(=O)c4ccc(C)s4)CC3)C2=O)ccc1-c1cn[nH]c1 [Example 66, 2-[3-methoxy-4-(1H-pyrazol-4-yl)phenyl]-8-(5-methylthiophene-2-carbonyl)-2,8-diazaspiro[4.5]decan-1-one] | 6.43 | 
